From ChEMBL document CHEMBL1129539, “2,4-diamino-5-deaza-6-substituted pyrido[2,3-d]pyrimidine antifolates as potent and selective nonclassical inhibitors of dihydrofolate reductases” (J Med Chem, 1996) come the findings set out here.

Assay [1] addresses T1, Dihydrofolate reductase (Pneumocystis carinii, UniProt P16184).
T1 sequence (P16184 whole entry): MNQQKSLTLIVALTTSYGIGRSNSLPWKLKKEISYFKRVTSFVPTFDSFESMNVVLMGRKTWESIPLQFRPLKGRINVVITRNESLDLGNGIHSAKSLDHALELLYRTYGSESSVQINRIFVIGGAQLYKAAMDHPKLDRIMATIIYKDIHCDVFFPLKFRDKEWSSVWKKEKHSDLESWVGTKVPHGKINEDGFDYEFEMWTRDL
Description: Inhibitory activity against Pneumocystis carinii dihydrofolate reductase (in 90 uM dihydrofolic acid)

The target in assay [2] is T2, Bifunctional dihydrofolate reductase-thymidylate synthase (Toxoplasma gondii, UniProt Q07422).
T2 sequence (Q07422 whole entry): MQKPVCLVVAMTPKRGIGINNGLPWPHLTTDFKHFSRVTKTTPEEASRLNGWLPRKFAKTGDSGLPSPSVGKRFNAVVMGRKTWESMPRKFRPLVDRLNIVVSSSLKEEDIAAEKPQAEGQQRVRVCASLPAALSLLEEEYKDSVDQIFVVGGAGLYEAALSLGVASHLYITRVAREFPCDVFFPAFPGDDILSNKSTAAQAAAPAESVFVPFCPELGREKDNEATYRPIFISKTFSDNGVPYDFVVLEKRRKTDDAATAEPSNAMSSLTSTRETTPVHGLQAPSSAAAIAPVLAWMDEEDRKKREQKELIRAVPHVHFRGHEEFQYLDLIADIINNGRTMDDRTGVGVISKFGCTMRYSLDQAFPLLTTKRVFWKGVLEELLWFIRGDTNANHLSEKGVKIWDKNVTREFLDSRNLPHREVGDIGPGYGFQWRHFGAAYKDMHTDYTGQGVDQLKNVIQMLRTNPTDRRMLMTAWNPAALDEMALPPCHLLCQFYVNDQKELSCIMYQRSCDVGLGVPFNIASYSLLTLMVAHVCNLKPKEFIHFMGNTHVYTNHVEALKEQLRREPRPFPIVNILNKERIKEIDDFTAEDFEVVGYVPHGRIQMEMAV
Description: Inhibitory activity against Toxoplasma gondii dihydrofolate reductase (in 90 uM dihydrofolic acid)

In assay [3] the target is T3, Dihydrofolate reductase (Rattus norvegicus, UniProt Q920D2).
T3 sequence (Q920D2 whole entry): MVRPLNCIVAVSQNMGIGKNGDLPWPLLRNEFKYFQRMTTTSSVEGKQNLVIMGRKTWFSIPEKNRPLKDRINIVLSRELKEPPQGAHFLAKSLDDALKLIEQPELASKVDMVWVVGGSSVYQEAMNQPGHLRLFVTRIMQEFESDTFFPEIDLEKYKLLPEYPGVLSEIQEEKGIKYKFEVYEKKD
Description: Inhibitory activity against rat liver dihydrofolate reductase (in 90 uM dihydrofolic acid)

Assay [4] deals with T4, Dihydrofolate reductase (Homo sapiens, UniProt P00374).
T4 sequence (P00374 whole entry): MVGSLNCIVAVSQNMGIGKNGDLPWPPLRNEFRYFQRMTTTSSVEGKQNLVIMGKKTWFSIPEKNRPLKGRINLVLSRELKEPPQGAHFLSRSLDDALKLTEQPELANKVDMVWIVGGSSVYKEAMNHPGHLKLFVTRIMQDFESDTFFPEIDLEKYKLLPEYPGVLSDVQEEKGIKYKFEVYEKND
Kind of assay: Inhibitory activity against recombinant human dihydrofolate reductase(in 50 uM dihydrofolic acid).

The target of assay [5] is T5, Dihydrofolate reductase (Escherichia coli, UniProt P0ABQ4).
T5 sequence (P0ABQ4 whole entry): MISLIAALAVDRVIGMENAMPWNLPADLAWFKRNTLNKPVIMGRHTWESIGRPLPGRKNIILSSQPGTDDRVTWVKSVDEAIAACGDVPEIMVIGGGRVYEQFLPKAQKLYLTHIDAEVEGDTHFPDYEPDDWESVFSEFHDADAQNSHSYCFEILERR
Kind of assay: Inhibitory activity against recombinant ec dihydrofolate reductase(in 50 uM dihydrofolic acid).

In assay [6] the target is Dihydrofolate reductase (Lactobacillus casei, UniProt P00381). Kind of assay: Inhibitory activity against recombinant lc dihydrofolate reductase(in 50 uM dihydrofolic acid). Further details: species or system Lacticaseibacillus casei.
Sequence of Dihydrofolate reductase (Lactobacillus casei, UniProt P00381) (P00381 whole entry): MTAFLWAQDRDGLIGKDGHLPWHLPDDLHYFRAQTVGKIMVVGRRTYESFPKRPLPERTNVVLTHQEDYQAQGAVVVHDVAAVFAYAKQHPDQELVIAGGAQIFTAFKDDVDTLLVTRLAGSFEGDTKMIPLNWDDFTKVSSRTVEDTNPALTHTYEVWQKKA
Assay [7] addresses T2, Bifunctional dihydrofolate reductase-thymidylate synthase. The source holds these as a separate data set.
Description: Inhibitory activity against Toxoplasma gondii dihydrofolate reductase (in 50 uM dihydrofolic acid)

In the case of `COc1cc(OC)c(OC)cc1CNc1cnc2nc(N)nc(N)c2c1`, the IC50 on Dihydrofolate reductase [1] was 5500 nM; in assay [2] it was 480 nM; at Dihydrofolate reductase [3] it was 1100 nM.

`Nc1nc(N)c2cc(NCc3ccccc3)cnc2n1`: the IC50 in assay [2] amounted to 520 nM; on Dihydrofolate reductase [3] it was 2100 nM; on Dihydrofolate reductase [4], 6200 nM.

As for `COc1ccc(OC)c(CN(C)c2cnc3nc(N)nc(N)c3c2)c1`, the half-inhibitory concentration (IC50) at Dihydrofolate reductase [5] stood at 140 nM; on Dihydrofolate reductase [3], 57 nM; on Dihydrofolate reductase [4], 8500 nM; on Dihydrofolate reductase [6], 5700 nM.

Regarding `COc1cc(CN(C)c2cnc3nc(N)nc(N)c3c2)cc(OC)c1OC`, the IC50 at Dihydrofolate reductase [1] turned out to be 61 nM; in assay [2], 14 nM; on Dihydrofolate reductase [3], 33 nM.

As for `COc1ccc(CNc2cnc3nc(N)nc(N)c3c2)c2ccccc12`, the IC50 worked out at 8200 nM against Dihydrofolate reductase [1], 380 nM in assay [2] and 430 nM against Dihydrofolate reductase [3].

Consider `COc1cc(CNc2cnc3nc(N)nc(N)c3c2)cc(OC)c1`, for which the IC50 in assay [2] amounted to 1200 nM.

In the case of `COc1cc(C(C)Nc2cnc3nc(N)nc(N)c3c2)cc(OC)c1OC` (stereo unspecified), the figures for the IC50 (on Dihydrofolate reductase [1]; in assay [2]; at Dihydrofolate reductase [3]) were 9200 nM, 194 nM and 1270 nM, respectively.

As for `Nc1nc(N)c2cc(NCc3cccc4ccccc34)cnc2n1`, the IC50 against Dihydrofolate reductase [1] turned out to be 3900 nM; in assay [2], 980 nM; at Dihydrofolate reductase [3], 240 nM.

In the case of `COc1ccc(OC)c(CNc2cnc3nc(N)nc(N)c3c2)c1`, the IC50 in assay [7] worked out at 500 nM; in assay [2] it was 310 nM.

Take `COc1cc(OC)c(CNc2cnc3nc(N)nc(N)c3c2)c(OC)c1`: the concentration for half-maximal inhibition (IC50) came out at 230 nM in assay [2] and 1200 nM against Dihydrofolate reductase [3].

In the case of `COc1ccc(CNc2cnc3nc(N)nc(N)c3c2)cc1OC`, the figures for the IC50 (against Dihydrofolate reductase [1]; in assay [2]; on Dihydrofolate reductase [3]) were 4800 nM, 730 nM and 1500 nM, respectively.

As for `CN(Cc1ccccc1)c1cnc2nc(N)nc(N)c2c1`, the IC50 against Dihydrofolate reductase [1] came out at 68 nM; in assay [7] it was 35 nM; in assay [2], 32 nM; on Dihydrofolate reductase [3] it was 140 nM; at Dihydrofolate reductase [4] it was 700 nM.

For the molecule `Nc1nc(N)c2cc(NCCc3ccccc3)cnc2n1`, the concentration for half-maximal inhibition (IC50) against Dihydrofolate reductase [1] was 1940 nM; in assay [2], 4450 nM; at Dihydrofolate reductase [3] it was 280 nM.

As for `Nc1nc(N)c2cc(NCc3ccc(Oc4ccccc4)cc3)cnc2n1`, the values for the IC50 (at Dihydrofolate reductase [1]; in assay [2]; against Dihydrofolate reductase [3]) were 24300 nM, 3700 nM and 2900 nM, respectively.

`COc1cc(CNc2cnc3nc(N)nc(N)c3c2)cc(OC)c1OC`: the figures for the half-inhibitory concentration (IC50) in assay [7] and in assay [2] were 1300 nM and 350 nM, respectively.

As to `COc1ccc2c(CNc3cnc4nc(N)nc(N)c4c3)cccc2c1`, the IC50 on Dihydrofolate reductase [1] was found to be 15400 nM; in assay [2] it was 710 nM; at Dihydrofolate reductase [3], 370 nM.

Consider `CN(Cc1ccc(C(=O)NC(=O)[C@H](N)CCC(=O)O)cc1)c1cnc2nc(N)nc(N)c2c1`, for which the IC50 at Dihydrofolate reductase [5] is 13 nM; at Dihydrofolate reductase [4] it was 650 nM; at Dihydrofolate reductase [6], 170 nM.

`CN(CCc1ccccc1)c1cnc2nc(N)nc(N)c2c1`: the results for the IC50 (at Dihydrofolate reductase [1]; in assay [2]; against Dihydrofolate reductase [3]) were 1800 nM, 920 nM and 1400 nM, respectively.

Regarding `COc1ccc(CN(C)c2cnc3nc(N)nc(N)c3c2)c(OC)c1OC`, the IC50 against Dihydrofolate reductase [1] worked out at 79 nM; in assay [7], 26 nM; in assay [2], 26 nM; against Dihydrofolate reductase [3], 30 nM; at Dihydrofolate reductase [4] it was 530 nM.

As to `COc1ccc(CNc2cnc3nc(N)nc(N)c3c2)c(OC)c1OC`, the IC50 on Dihydrofolate reductase [1] was 15300 nM; in assay [2], 670 nM; against Dihydrofolate reductase [3], 3240 nM.

Turning to `COc1cc(CN(C)c2cnc3nc(N)nc(N)c3c2)cc(OC)c1`, the IC50 in assay [7] turned out to be 29 nM; in assay [2] it was 31 nM; at Dihydrofolate reductase [3] it was 72 nM; on Dihydrofolate reductase [4] it was 2900 nM.

Consider `CCOc1cc(Cc2cnc(N)nc2N)cc(OCC)c1-n1cccc1` [EPIROPRIM], for which the IC50 was 470 nM in assay [2] and 73000 nM on Dihydrofolate reductase [3].
